Results taken from publication PMC11766795 (Marine Drugs, 2025).
pKd: −log10 of the molar value.

Experiments:
pseudotyped virus EBOV = test: microbe, parasite or virus in culture; format: cell-based, Zaire ebolavirus; settings: for IC50: Zaire ebolavirus, TZM-bl, read-out: IC50 (µM) Pseudovirus, EBOV
in vitro = settings: human
pseudotyped MARV = test: microbe, parasite or virus in culture; format: cell-based, Marburg marburgvirus; settings: for IC50: Orthomarburgvirus marburgense, TZM-bl, read-out: IC50 (µM) Pseudovirus, MARV
[1] = system: Wild-type EBOV (Makona C07 strain, IRF0192); test: microbe, parasite or virus in culture; format: cell-based, Ebola virus; settings: Zaire ebolavirus, Huh-7, 48 h, read-out: IC50 (µM) Infectious Virus, EBOV
MARV (Angola, IRF0202) = test: cells; format: cell-based, Marburg virus; settings: Homo sapiens, Huh-7, 24 h, read-out: IC50 (µM) Infectious Virus, MARV
HIV strain, HXBc2 (HX) = format: cell-based, Human immunodeficiency virus
[2] = system: vesicular stomatitis virus (VSV); format: cell-based
[3] = system: amphitropic murine leukemia virus (A-MLV); format: cell-based
[4] = target: RBD of EBOV-GP (RBD-Fc fusion protein) (Zaire ebolavirus, UniProt Q05320); test: biochemical; format: binding
RBD of EBOV-GP (RBD-Fc fusion protein), sequence (Q05320 54-201 limits assumed): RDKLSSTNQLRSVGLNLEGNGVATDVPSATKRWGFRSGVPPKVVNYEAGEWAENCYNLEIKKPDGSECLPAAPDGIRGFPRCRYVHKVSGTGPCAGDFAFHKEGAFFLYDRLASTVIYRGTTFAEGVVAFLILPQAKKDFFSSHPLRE

SMILES | Activity in screening against pseudotyped EBOV (pseudotyped virus EBOV) | IC50 (pseudotyped virus EBOV) [µM] | CC50 (in vitro) [µM] | Neutralization of pseudotyped EBOV in specificity test (pseudotyped virus EBOV) | SI, Selectivity index (CC50/IC50), EBOV (pseudotyped virus EBOV) | Activity in screening against pseudotyped MARV (pseudotyped MARV) | Neutralization of pseudotyped MARV in specificity test (pseudotyped MARV) | SI, Selectivity index (CC50/IC50), MARV (pseudotyped MARV) | IC50 (pseudotyped MARV) [µM] | IC50 [1] [µM] | IC50 (MARV (Angola, IRF0202)) [µM] | Neutralization of pseudotyped HIV (specificity) (HIV strain, HXBc2 (HX)) | Neutralization of pseudotyped VSV (specificity) [2] | Neutralization of pseudotyped A-MLV (specificity) [3] | pKd [4]
CC(=O)N[C@@H](Cc1c[nH]c2ccccc12)C(=O)O [N-Ac-L-tryptophan, N-Acetyl-L-Tryptophan, reference compound] | some activity | > 48 | > 60 | – | – | – | – | – | – | – | – | – | – | – | –
CC(=O)N[C@H](Cc1c[nH]c2ccccc12)C(=O)O [N-Ac-D-tryptophan, N-Acetyl-D-Tryptophan, reference compound] | some activity | > 48 | > 60 | – | – | – | – | – | – | – | – | – | – | – | –
CC(C)=CCC[C@]1(C)[C@@H](O)CC[C@@]2(C)[C@H]1CC[C@H]1Cc3c([nH]c4ccccc34)[C@@]12C [Compound W26, Emindole SB] | modest activities | ~3.17 | 20.9 | neutralizing | 7 | modest activities | neutralizing | 10 | 2.15 | 49.8 | 95.7 | neither of them did so | neither of them did so | neither of them did so | –
C[C@@]12NC(=O)[C@H](Cc3c1[nH]c1ccccc31)n1c2nc2ccccc2c1=O [Compound W12, Fumiquinazoline J] | modest activities | ~1.68 | 24.8 | neutralizing | 15 | modest activities | neutralizing | 26 | 0.96 | 15.3 | 64.5 | neither of them did so | neither of them did so | neither of them did so | 4.04
CC(=O)OCC(=O)OC1CCC2(C)C(CCC3c4c([nH]c5ccccc45)CC32C)C1(C)CCC=C(C)C (centres unmarked) [Compound W27, Fusaindoterpene B] | modest activities | ~2.82 | 16.3 | – | 7 | modest activities | – | 6 | 2.63 | 33 | 83.3 | – | – | – | –
